Results: PubChem BioAssay AID248 (DTP/NCI, 2004)
Toxic doses and inconclusive results are not listed.

Test system: L1210 leukemia ip in BDF1 mice, survival T/C
Assay: NCI In Vivo Anticancer Drug Screen. Data for tumor model L1210 Leukemia (intraperitoneal) in B6D2F1 (BDF1) mice
Settings: endpoint: mean survival time, higher = longer survival
Outline: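 Tumor cells were implanted, animals were treated, and survival was followed. The result divides the treated measurement by the vehicle-control measurement.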

[1] = dose: 100.0 mg/kg/injection, schedule: Q04DX002 (ip), vehicle: Klucel (hydroxypropylcellulose) (HPC)
[2] = dose: 200.0 mg/kg/injection, schedule: Q04DX002 (ip), vehicle: Klucel (hydroxypropylcellulose) (HPC)
[3] = dose: 400.0 mg/kg/injection, schedule: Q04DX002 (ip), vehicle: Klucel (hydroxypropylcellulose) (HPC)
[4] = dose: 100.0 mg/kg/injection, schedule: Q01DX009 (ip), vehicle: Klucel (hydroxypropylcellulose) (HPC)
[5] = dose: 100.0 mg/kg/injection, schedule: Q04DX003 (ip), vehicle: Klucel (hydroxypropylcellulose) (HPC)
[6] = dose: 200.0 mg/kg/injection, schedule: Q04DX003 (ip), vehicle: Klucel (hydroxypropylcellulose) (HPC)
[7] = dose: 200.0 mg/kg/injection, schedule: Q01DX009 (ip), vehicle: Klucel (hydroxypropylcellulose) (HPC)
[8] = dose: 400.0 mg/kg/injection, schedule: Q04DX003 (ip), vehicle: Klucel (hydroxypropylcellulose) (HPC)

With `CCN(CC)C(=O)OC/C=C\CC(Cl)(Cl)Cl` the T/C (dose: 50.0 mg/kg/injection, schedule: Q01DX009 (ip), vehicle: saline sonified) was 97 % of control, the T/C (dose: 100.0 mg/kg/injection, schedule: Q01DX009 (ip), vehicle: saline sonified) was 111 % of control and the T/C (dose: 100.0 mg/kg/injection, schedule: Q04DX003 (ip), vehicle: saline sonified) was 106 % of control. The T/C (dose: 200.0 mg/kg/injection, schedule: Q01DX009 (ip), vehicle: saline sonified) was 94 % of control, the T/C (dose: 200.0 mg/kg/injection, schedule: Q04DX003 (ip), vehicle: saline sonified) was 106 % of control and the T/C (dose: 400.0 mg/kg/injection, schedule: Q04DX003 (ip), vehicle: saline sonified) was 106 % of control.
In the case of `CCCNC(=O)Oc1ccc(Nc2ccccc2)cc1`, the T/C [1] was 118 % of control, the T/C [2] was 103 % of control and the T/C [3] was 107 % of control.
With `CC(C)c1ccc(/C=C(\C(=O)O)c2cccc3ccccc23)cc1` the T/C [4] was 101 % of control.
With `CC1(/C=N\NC(N)=O)CC2C=CC1C2` (stereo unspecified) the T/C [5] was 104 % of control and the T/C [6] was 98 % of control.
In the case of `NO`, the T/C (dose: 62.5 mg/kg/injection, schedule: Q01DX Z (oral), vehicle: saline) was 102 % of control, the T/C (dose: 125.0 mg/kg/injection, schedule: Q01DX Z (oral), vehicle: saline) was 104 % of control and the T/C (dose: 250.0 mg/kg/injection, schedule: Q01DX Z (oral), vehicle: saline) was 114 % of control.
For `COc1cc(N(CCCl)CCCl)ccc1C=Nc1ccccc1C(=O)O`, the T/C (dose: 2.3 mg/kg/injection, schedule: Q01DX015 (ip), vehicle: carboxymethylcellulose (CMC)) was 117 % of control, the T/C (dose: 5.0 mg/kg/injection, schedule: Q01DX001 (ip), vehicle: carboxymethylcellulose (CMC)) was 121 % of control and the T/C (dose: 5.3 mg/kg/injection, schedule: Q01DX015 (ip), vehicle: carboxymethylcellulose (CMC)) was 122 % of control. For the same compound, the T/C (dose: 10.0 mg/kg/injection, schedule: Q01DX015 (ip), vehicle: carboxymethylcellulose (CMC)) was 154 % of control, the T/C (dose: 15.0 mg/kg/injection, schedule: Q01DX015 (ip), vehicle: carboxymethylcellulose (CMC)) was 119 % of control and the T/C (dose: 16.0 mg/kg/injection, schedule: Q01DX015 (ip), vehicle: carboxymethylcellulose (CMC)) was 123 % of control. The T/C (dose: 20.0 mg/kg/injection, schedule: Q01DX001 (ip), vehicle: carboxymethylcellulose (CMC)) was 162 % of control, the T/C (dose: 22.0 mg/kg/injection, schedule: Q01DX001 (ip), vehicle: carboxymethylcellulose (CMC)) was 150 % of control and the T/C (dose: 33.0 mg/kg/injection, schedule: Q01DX001 (ip), vehicle: carboxymethylcellulose (CMC)) was 164 % of control. The T/C (dose: 50.0 mg/kg/injection, schedule: Q01DX001 (ip), vehicle: carboxymethylcellulose (CMC)) was 100 % of control.
`COc1ccc2c(c1)CC=CO2` was tested, and the T/C (dose: 100.0 mg/kg/injection, schedule: Q01DX001 (ip), vehicle: carboxymethylcellulose (CMC)) was 107 % of control, the T/C (dose: 200.0 mg/kg/injection, schedule: Q01DX001 (ip), vehicle: carboxymethylcellulose (CMC)) was 94 % of control and the T/C (dose: 400.0 mg/kg/injection, schedule: Q01DX001 (ip), vehicle: carboxymethylcellulose (CMC)) was 100 % of control.
In the case of `CCCCCCCCCCCCC(C)C(=O)O` (stereo unspecified), the T/C (dose: 25.0 mg/kg/injection, schedule: Q04DX002 (ip), vehicle: Klucel (hydroxypropylcellulose) (HPC)) was 96 % of control, the T/C (dose: 50.0 mg/kg/injection, schedule: Q04DX002 (ip), vehicle: Klucel (hydroxypropylcellulose) (HPC)) was 93 % of control and the T/C [4] was 105 % of control. For the same compound, the T/C [1] was 101 % of control, the T/C [7] was 91 % of control and the T/C [2] was 98 % of control. For the same compound, the T/C (dose: 400.0 mg/kg/injection, schedule: Q01DX009 (ip), vehicle: Klucel (hydroxypropylcellulose) (HPC)) was 91 % of control and the T/C [3] was 98 % of control.
For `Cc1c(C#N)oc2c(Cl)cc(Cl)cc12`, the T/C [4] was 99 % of control, the T/C [5] was 100 % of control and the T/C [7] was 99 % of control. For the same compound, the T/C [6] was 100 % of control and the T/C [8] was 101 % of control.
In the case of `O=C(O)COc1ccc(F)cc1Cl`, the T/C [4] was 93 % of control, the T/C [5] was 96 % of control and the T/C [7] was 96 % of control. The T/C [6] was 98 % of control and the T/C [8] was 94 % of control.
